Measured values taken from patent publication US12465626B2, “Traditional Chinese medicine composition with improving cognition effect, preparation method thereof and traditional Chinese medicine preparation” (Chenland Nutritionals, Inc., priority 2019, dated 2025).

Columns and labels:
Assay type in all cases: in vivo
mice [1] = experiment: Novel object recognition test of mice
Description: Adaptation period: on the first day, the mice were placed in the test room for 1 hour of environmental adaptation and familiarity, and then placed in the open field box for 20 minutes (there was no object in the box), so as to eliminate the impact of the open field box on the tested mice. After the experiment of each mouse, the open field box was cleaned with 75% ethanol.
Familiarization period: on the second day (24 hours after the adaptation period), the mice were placed in the test room for 1 hour of environmental adaptation and familiarization, then two yellow cylindrical bottles of the same size and texture were placed at the left and right ends of the same side of the open field box as familiar objects, and then the mouse was put into the box with its back towards the objects. The mouse's exploration of the objects within 5 min was recorded (timing standard: the exploration time within 2 cm of the mouse's nose or mouth from the object, and its lying on the objects or just walking around the objects was not included). […]
Test period: 2 h after the familiarization period, replace a yellow cylindrical bottle in the open field box was replaced with a green conical bottle of the same size as a strange object, and then the mouse was put into the box with its back towards the objects. […] The recognition index (RI) was calculated: RI=Tn/(Tn+Tf). […]

mice [2] = experiment: Morris water maze test, directional navigation experiment; settings: max 60 s
Description: (§1) Statistical methods: the data were analyzed by GraphPad Prism 7.01 software (GraphPad Software, Inc., San Diego, California, USA). Before the parameter test of all group tests, the data were tested by normality test (Kolmogorov-Smirnov test) and variance homogeneity test (Levene test). Except for the escape latency in water maze, all test parameters were compared between groups by non paired T-test (single tail), and the test level was set as p<0.05. The escape latency in water maze was compared between two groups by two-way analysis of variance. The post test was conducted by Sidak's multiple comparisons test, and the test level was set as p<0.05.
(§2) Implementation method: the test procedure included two parts: directional navigation and space exploration. A total of 5 consecutive days were tested. The first part was the directional navigation experiment, which was tested on mice for 4 days, and the second part was the space exploration experiment, which was tested for 1 day. The melanin edible toner was […] to hide the platform, and it was kept in sharp contrast with the color of mice during camera shooting for easy tracking. The platform was located 0.8 cm below the water surface and the water depth was 21 cm. It was located in the NW quadrant. The water temperature in the water maze was maintained at a constant temperature of 22-24° C. with a heating rod.
Directional navigation experiment: each mouse was trained 4 times a day, with an interval of 15-20 min. During the test, the water entry point was selected in a semi random way each time. The experimenter held the mouse by hand, made it face the pool wall, and gently put it into the water. In each training, if the mouse could find the platform within 60 s, and the time spent on the platform was more than 2 S, it was regarded as the sign of successful platform search. The time spent by the mice from entering the water to successful platform search was recorded as the latency. […] After the mice boarded the platform, the mice were kept on the platform for 10 s, so that they could carry out spatial learning and memory according to the reference objects of the four quadrants, and the tension of the mice were reduced. The average value of daily latency was calculated to evaluate the acquisition ability of animals' spatial memory.

mice [3] = experiment: Step-down test of mice (scopolamine hydrobromide)
Description: as §1
Test method: the grouping, sample preparation and modeling of mouse step-down test were the same as above. At the beginning of the test, the step-down training was carried out, where the adaptation was carried out for 3 min and then the power on training was carried out for 300 s. The test was conducted after 24 hours. The drug was administered 1 hour before the test, and scopolamine hydrobromide and normal saline were injected intraperitoneally 15-20 minutes before the test. Then the mouse was put on the platform and the latency of jumping off the platform for the first time and the number of errors (getting off the platform) within 300 s were recorded.

mice [4] = experiment: Morris water maze test, space exploration experiment; settings: exploration period
Description: as §1, §2
Space exploration experiment: the platform was removed and each mouse was tested once for 60 s. The SE quadrant was selected and the mouse was gently put into the water facing the edge of the pool wall. The spatial memory ability of the animal was evaluated by the number of times the animal crossed the original platform position within 60 s, the run ratio and time ratio of the original platform quadrant (i.e. the ratio of the run and time of the animal's original platform quadrant to the total run and time).

[5] = after intragastric administration

C/C=C1\[C@H]2C=C(C)C[C@]1(N)c1ccc(=O)[nH]c1C2 [Positive drug, huperzine-A]
Recognition index (x[…]SE) (mice [1]; RI=Tn/(Tn+Tf), intragastric, dose (crude drug) 1.002 g/kg (Embodiment 1, Comparative examples 1, 2), 1.200 g/kg (Comparative example 3), 0.67 tablets/kg (positive drug), model group 0.4180, control 0.5715): 0.5341 ± 0.0428
Recognition index compared with the model group (mice [1]; [5]): increased significantly
Escape latency First day (s) (x[…]SE) (mice [2]; first day, doses as Table 4, model group 53.2): 52.7 ± 2.29 s
Escape latency Fourth day (s) (x[…]SE) (mice [2]; fourth day, model group 47.7): 43.5 ± 2.83 s
Escape latency Second day (s) (x[…]SE) (mice [2]; second day, model group 44.2): 44.5 ± 2.80 s
Escape latency Third day (s) (x[…]SE) (mice [2]; third day, model group 42.4): 43.6 ± 2.91 s
Step-down latency compared with the model group (mice [3]; [5]): significantly longer
Step-down number of errors compared with the model group (mice [3]; [5]): significantly lower
Number of errors (x[…]SE) (mice [3]; errors within 300 s, doses as Table 3, model group 2.714, control 1.375): 1.833 ± 0.3445
Latency/s (mice [3]; latency of jumping off the platform, max 300 s, drug 1 hour before test, doses as Table 2, model group 42.01, control 100.3): 94.12 ± 29.48 s
Stay time in target quadrant/s (x[…]SE) (mice [4]; 60 s, model group 14.15, control 17.30): 15.04 ± 0.9555 s
Number of crossing platform (x[…]SE) (mice [4]; within 60 s, model group 1.308, control 3.125): 2.786 ± 0.4591
Escape latency compared with the model group (mice [4]; [5]): significantly shorter
Number of crossing the platform compared with the model group (mice [4]; [5]): significantly higher
Escape latency/s (x[…]SE) (mice [4]; doses as Table 5, model group 39.27, control 20.05): 22.91 ± 3.922 s
Run distance of target quadrant/mm (x[…]SE) (mice [4]; model group 2373, control 2821): 2867 ± 207.6 mm
